Experimental data as given in US20070274947A1, “Antisense Oligonucleotides Directed to Ribonucleotide Reductase R1 and Uses Thereof in the Treatment of Cancer” (priority 2003, published 2007).

Columns and labels:
[1] = system: PC-3 human prostatic cancer cells; experiment: PC-3 prostate tumor growth in SCID mice; assay type: in vivo; settings: 10 mg/kg i.v. every other day, 36 days, vs saline
Protocol: PC-3 human prostatic cancer cells (1×10^7 cells in 100 μl of PBS) were subcutaneously injected into the right flank of 6-7 week old male SCID mice. After the tumor size reached an approximate volume of 50 mm^3, 14 days post tumor cell injection, SEQ ID NO:1 was administered by bolus infusion into the tail vein every other day at 10 mg/kg. Control animals received saline alone for the same period. Treatments lasted for 36 days thereafter. Antitumor activities were estimated by the inhibition of tumor volume, which was measured with a caliper on six different occasions over 36-day period. Each point represents mean tumor volume calculated from 5 animals per experimental group.

[2] = system: Human taxol-resistant promyelocytic leukemia cells (HL-60); experiment: Taxol-resistant promyelocytic leukemia (HL-60) growth in SCID mice; assay type: in vivo; settings: SEQ ID NO:1 10 mg/kg i.v. every other day, taxol 10 mg/kg i.p. once a week
Protocol: Human taxol-resistant promyelocytic leukemia cells (HL-60) (7×10^6 cells in 100 μl of PBS) were injected into the right flank of 6-7 weeks old female SCID mice. After the size of tumor reached an approximate volume of 100 mm^3, 10 days post tumor cell injection, SEQ ID NO:1 was administered by bolus infusion into the tail vein every other day at 10 mg/kg. Control animals received saline alone for the same period. The anti-tumor effect of SEQ ID NO:1 was further compared to that of taxol. Taxol was administered i.p. once a week at a dose of 10 mg/kg. Anti-tumor activity was estimated by the inhibition of tumor volume, which was measured with caliper (FIG. 17A). Each point represents mean tumor volume calculated from 10 animals per experimental group. In addition animals were sacrificed and tumor weights taken at the end of the study.

[3] = system: MDA-CDDP-S4 human in vivo-selected Cisplatin-resistant breast adenocarcinoma cells; experiment: Cisplatin-resistant breast adenocarcinoma MDA-CDDP-S4 growth in SCID mice
Protocol: MDA-CDDP-S4 human in vivo-selected Cisplatin-resistant breast adenocarcinoma cells MDA231/CDDPs4) (4×10^6 cells in 100 μl of PBS) were injected into the fat pad (inside of right leg) of 6-7 weeks old female SCID mice. After the size of tumor reached an approximate volume of 100 mm^3, 7-9 days post tumor cell injection, SEQ ID NO:1 was administered by bolus infusion into the tail vein every other day at 10 mg/kg. Control animals received saline alone for the same period. Antitumor effect of SEQ ID NO:1 was further compared to that of Cisplatin or Taxol alone (FIG. 14A) and in combination as indicated in the FIGS. 14B, 14C and 14D. Cisplatin was administered intravenously once a week for three weeks at a dose of 4 mg/kg. Taxol was administered intravenously once a week for three weeks at a dose of 10 mg/kg. Antitumor activities were estimated by the inhibition of tumor volume, which was measured with caliper and each point represents mean tumor volume calculated from 10 animals per experimental group (FIG. 14C). At the end of the study animals were sacrificed, tumor weights taken and mean tumor weights are indicated. […] As expected, treatment with Cisplatin during the same period was ineffective against Cisplatin-resistant tumor.

[4] = Phase I study, 14-day continuous intravenous infusion in patients with solid tumors or lymphoma
Protocol: To determine the maximal tolerated dose (MTD) and recommended Phase II dose of SEQ ID NO:1 in patients with solid tumors or lymphoma when administered as a 14-day continuous intravenous infusion.
Safety: Adverse events and laboratory evaluation. Dosage Selection and Dosing Interval:
The starting dose in the Phase I dose-escalation study is 6.0 mg/m^2/day (approximately 0.16 mg/kg/day) infused over 14 days.
DLT Definition: • Grade 4 neutropenia associated with fever or lasting 3 days or longer. • Platelet count <25,000 μl. • Any ≧ grade 3 coagulation abnormality (defined by PT and aPTT values). • Clinical hemorrhage ≧ grade 1. • Nausea/vomiting ≧ grade 3 despite maximal antiemetic therapy; diarrhea ≧ grade 3 despite maximal anti-diarrheal therapy. • Any other non-hematological toxicity ≧grade 3 with the exception of alopecia Interim Evaluation Status:
Preliminary evaluability assessment was performed. In the Phase I open label single arm study, SEQ ID NO:1 was administered in daily doses escalating from 6.0 mg/m^2 to 210.9 mg/m^2 in patients with solid tumors or lymphoma. SEQ ID NO:1 was administered as monotherapy by ambulatory intravenous infusion for 14 days in each 21 day cycle. […] Expected toxicities for agents in the same class as SEQ ID NO:1, phosphorothioate oligonucleotides, include fatigue, prolonged coagulation (PT/aPITI) times and elevated transaminase ALT/AST) levels.

**Q.** Which “inhibition of tumor volume” value [1] does the source give for “5′-CTCTAGCGTCTTAAAGCCGA-3′ (CTCTAGCGTCTTAAAGCCGA; chemistry not given here) [SEQ ID NO:1]” here?
**A.** strong inhibitory effects

**Q.** What about the “tumor growth / tumor weight” value [2] of the same substance?
**A.** significant reduction of tumor weight

**Q.** And the “tumor weight / tumor growth” value ([3]; SCID mice, fat pad, SEQ ID NO:1 10 mg/kg every other day, Cisplatin 4 mg/kg, Taxol 10 mg/kg i.v. weekly for three weeks)?
**A.** significant reduction of tumor weight

**Q.** What about the “delay in tumor growth compared with Taxol” value ([3]; Taxol 10 mg/kg weekly as positive control) of the same substance?
**A.** superior to the inhibitory effects observed with Taxol

**Q.** What about the “drug related serious adverse events” value ([4]; human, in vivo) of the same substance?
**A.** no drug related serious adverse events

**Q.** What about the tolerability ([4]; human, in vivo) of the same substance?
**A.** well tolerated

**Q.** And the “additional sporadic toxicities considered possibly related to study therapy” value ([4]; interim evaluation)?
**A.** Grade 3 hypokalemia, Grade 3 increased blood alkaline phosphatase and Grade 3 diarrhea

**Q.** What about the “patients with Grade 3 fatigue” value ([4]; interim evaluation) of the same substance?
**A.** Two patients

**Q.** What about the “patients with Grade 3 increased ALT” value ([4]; interim evaluation) of the same substance?
**A.** three patients

**Q.** What about the “patients with Grade 3 increased AST” value ([4]; interim evaluation) of the same substance?
**A.** one patient

**Q.** And the “patients with prolonged aPTT” value ([4]; interim evaluation)?
**A.** one patient

**Q.** What about the “maximum tolerated dose (MTD)” value ([4]; patients, no MTD seen up to and including this dose, interim) of the same substance?
**A.** ≥ 210.9 mg/m^2/day
